The text below walks through data of patent US9382228B2 (priority 2013, dated 2016).

The test system of one test is osteoclast precursors. Put plainly: cells. Type of test: cell-based. Particulars: read-out: Osteoclast assay. On the procedure: Osteoclast Tartrate-Resistant Acid Phosphatase Assay
Diluted compound was transferred to a 384-well black clear bottom plate. Two-thousand five hundred osteoclast precursors (Lonza, Walkersville, Md.) were added per well in growth media containing Receptor Activator of Nuclear Factor Kappa-beta ligand (RANKL) and M-CSF (R&D Systems, Minneapolis, Minn.). […] Tartrate-resistant acid phosphatase activity in the supernatant samples was determined using an acid phosphatase assay kit (Sigma, St. Louis, Mo.). Absorbance was measured at 550 nm using a plate reader. Data was analyzed using Prism software (Graphpad, San Diego, Calif.) to calculate IC50 values.

The target of test [1] is unphosphorylated c-KIT kinase (uKIT, Seq. ID no. 2) (Homo sapiens, UniProt P10721). Put plainly: biochemical. To be noted: uKIT, enzymatic assay, ATP 2000 μM.
Protocol: uKit kinase (Seq. ID No. 2) Assay
In this assay, the oxidation of NADH (thus the decrease at A340 nm) was continuously monitored spectrophometrically. […] The inhibition reaction was started by mixing serial diluted test compound with the above reaction mixture. The absorption at 340 nm was monitored continuously for 4 hours at 30° C. on Synergy 2 plate reader (BioTech).
The target in test [2] is unphosphorylated PDGFRβ kinase (uPDGFRβ, Seq. ID No. 3) (Homo sapiens, UniProt P09619). Put plainly: biochemical. To be noted: uPDGFRb, enzymatic assay, ATP 500 μM.
Protocol: Unphosphorylated PDGFRβ (uPDGFRβ) Kinase (Seq. ID No. 3) Assay
In this assay, the oxidation of NADH (thus the decrease at A340 nm) was continuously monitored spectrophometrically. […] The inhibition reaction was started by mixing serial diluted test compound with the above reaction mixture. The absorption at 340 nm was monitored continuously for 4 h at 30° C. on a Polarstar Optima or Synergy 2 plate reader. The reaction rate was calculated using the 1.5 to 2.5 h time frame. Percent inhibition was obtained by comparison of reaction rate with that of a control (i.e. with no test compound). IC50 values were calculated from a series of percent inhibition values determined at a range of inhibitor concentrations using software routines as implemented in the GraphPad Prism software package.
The subject of the next test is M-NFS-60 cells. Put plainly: cells. Particulars: 67 h, read-out: M-NFS-60 cell proliferation.
Test [3] addresses T1, unphosphorylated c-FMS kinase (uFMS, Seq. ID no. 1) (Homo sapiens, UniProt P07333).
T1 sequence (P07333 538-972): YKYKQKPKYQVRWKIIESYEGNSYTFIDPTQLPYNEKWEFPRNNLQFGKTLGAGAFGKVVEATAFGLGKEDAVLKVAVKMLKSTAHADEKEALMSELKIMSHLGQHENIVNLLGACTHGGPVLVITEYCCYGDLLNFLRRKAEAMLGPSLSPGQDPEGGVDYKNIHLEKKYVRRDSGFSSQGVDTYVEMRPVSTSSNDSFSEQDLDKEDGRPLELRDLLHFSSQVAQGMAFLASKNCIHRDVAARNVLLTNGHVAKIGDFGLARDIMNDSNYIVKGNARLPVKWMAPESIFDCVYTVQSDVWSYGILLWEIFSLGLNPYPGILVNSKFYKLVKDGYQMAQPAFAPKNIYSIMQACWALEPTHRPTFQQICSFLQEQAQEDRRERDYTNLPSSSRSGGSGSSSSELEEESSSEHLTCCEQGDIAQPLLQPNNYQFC
Put plainly: biochemical. To be noted: uFMS, enzymatic assay, ATP 500 μM.

A value given as a limit tells only on which side of the number the result lay.

Chain of unphosphorylated PDGFRβ kinase (uPDGFRβ, Seq. ID No. 3) (P09619 557-1106): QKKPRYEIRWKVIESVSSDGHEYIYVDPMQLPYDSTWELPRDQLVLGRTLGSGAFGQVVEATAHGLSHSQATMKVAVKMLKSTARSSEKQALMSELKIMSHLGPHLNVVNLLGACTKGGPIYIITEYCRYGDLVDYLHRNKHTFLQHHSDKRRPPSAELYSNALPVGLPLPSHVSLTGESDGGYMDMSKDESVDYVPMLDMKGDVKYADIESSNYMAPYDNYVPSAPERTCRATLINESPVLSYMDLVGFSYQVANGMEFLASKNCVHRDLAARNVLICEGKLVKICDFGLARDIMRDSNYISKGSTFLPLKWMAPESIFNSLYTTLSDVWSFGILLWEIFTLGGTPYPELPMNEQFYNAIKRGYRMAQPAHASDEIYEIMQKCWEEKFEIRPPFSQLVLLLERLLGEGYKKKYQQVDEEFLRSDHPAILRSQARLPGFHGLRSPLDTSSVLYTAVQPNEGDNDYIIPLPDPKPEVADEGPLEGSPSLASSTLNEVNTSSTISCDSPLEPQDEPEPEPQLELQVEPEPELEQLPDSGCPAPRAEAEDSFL
Chain of unphosphorylated c-KIT kinase (uKIT, Seq. ID no. 2) (P10721 with tags, fused parts or gaps): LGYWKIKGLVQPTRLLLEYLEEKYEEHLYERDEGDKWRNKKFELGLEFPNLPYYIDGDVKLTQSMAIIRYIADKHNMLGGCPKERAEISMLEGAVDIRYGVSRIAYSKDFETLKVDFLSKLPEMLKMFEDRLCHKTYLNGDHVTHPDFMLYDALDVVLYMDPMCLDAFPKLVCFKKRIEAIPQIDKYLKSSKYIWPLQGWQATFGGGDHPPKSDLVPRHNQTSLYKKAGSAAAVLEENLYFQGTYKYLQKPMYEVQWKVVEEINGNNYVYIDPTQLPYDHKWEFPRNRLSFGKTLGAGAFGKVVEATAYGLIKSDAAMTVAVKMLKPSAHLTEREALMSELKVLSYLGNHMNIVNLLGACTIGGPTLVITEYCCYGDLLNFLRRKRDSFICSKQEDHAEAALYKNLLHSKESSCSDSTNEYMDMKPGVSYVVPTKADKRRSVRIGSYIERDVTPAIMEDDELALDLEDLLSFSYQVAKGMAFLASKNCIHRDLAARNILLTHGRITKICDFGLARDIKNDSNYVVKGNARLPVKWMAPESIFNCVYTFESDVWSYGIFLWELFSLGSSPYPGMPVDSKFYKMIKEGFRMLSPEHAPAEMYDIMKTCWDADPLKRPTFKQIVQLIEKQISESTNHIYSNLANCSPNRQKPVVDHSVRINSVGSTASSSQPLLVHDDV
Protocol for M-NFS-60 cells: M-NFS-6 Cell Proliferation Assay
A serial dilution of test compound was dispensed into a 384-well black clear bottom plate (Corning, Corning, N.Y.). Two thousand five hundred cells were added per well in 50 μL complete growth medium. […] IC50 values were calculated from a series of percent inhibition values determined at a range of inhibitor concentrations using software routines as implemented in the GraphPad Prism software package.

Regarding `COC1(C(=O)NC(=O)Nc2ccc(Oc3ccnc(-c4cnn(C)c4)c3)c(C)n2)CCCC1` [Example 150, 1-methoxy-N-((6-methyl-5-((2-(1-methyl-1H-pyrazol-4-yl)pyridin-4-yl)oxy)pyridin-2-yl)carbamoyl)cyclopentanecarboxamide], the IC50 in the test on osteoclast precursors lay in the range of 0.01 to 0.1 µM; in test [1], 0.01 to 0.1 µM; in test [2], 0.1 to 1 µM.
For `Cc1cn(-c2cc(Oc3ccc(NC(=O)NC(=O)C4(C)CCC4)nc3C)ccn2)cn1` [Example 147, 1-methyl-N-((6-methyl-5-((2-(4-methyl-1H-imidazol-1-yl)pyridin-4-yl)oxy)pyridin-2-yl)carbamoyl)cyclobutanecarboxamide], the IC50 in the test with osteoclast precursors fell in the range of 0.01 to 0.1 µM.
Same read-out and setting: in the case of `CC(C)C(=O)NC(=O)Nc1ccc(Oc2ccnc(-c3cnn(C)c3)c2)cn1` [Example 24, N-((5-((2-(1-methyl-1H-pyrazol-4-yl)pyridin-4-yl)oxy)pyridin-2-yl)carbamoyl)isobutyramide] it was less than 0.01 µM.
For the compound `Cc1ncc(-c2cc(Oc3ccc(NC(=O)NC(=O)C4CCOC4)nc3)ccn2)s1` (centres unmarked) [Example 115, N-((5-((2-(2-methylthiazol-5-yl)pyridin-4-yl)oxy)pyridin-2-yl)carbamoyl)tetrahydrofuran-3-carboxamide], the IC50 was 0.01 to 0.1 µM in the test on osteoclast precursors, 0.1 to 1 µM in the test on M-NFS-60 cells, 0.01 to 0.1 µM in test [3] and greater than 1 µM in test [1].
On to `Cc1nc(NC(=O)NC(=O)C(C)(C)C#N)ccc1Oc1ccnc(-c2cnn(C)c2)c1` [Example 29, 2-cyano-2-methyl-N-((6-methyl-5-((2-(1-methyl-1H-pyrazol-4-yl)pyridin-4-yl)oxy)pyridin-2-yl)carbamoyl)propanamide], for which the IC50 was 0.1 to 1 µM in the test on M-NFS-60 cells, 0.01 to 0.1 µM in test [3], greater than 1 µM in test [1] and greater than 1 µM in test [2].
For the compound `COCCCC(=O)NC(=O)Nc1ccc(Oc2ccnc(-c3cnn(C)c3)c2)c(C)n1` [Example 25, 4-methoxy-N-((6-methyl-5-((2-(1-methyl-1H-pyrazol-4-yl)pyridin-4-yl)oxy)pyridin-2-yl)carbamoyl)butanamide], the IC50 in the test with M-NFS-60 cells is 0.1 to 1 µM; in test [3], 0.01 to 0.1 µM; in test [2], greater than 1 µM.
With `Cc1nc(NC(=O)NC(=O)C2(C#N)CC2)ccc1Oc1ccnc(-c2cnn(C)c2)c1` [Example 28, 1-cyano-N-((6-methyl-5-((2-(1-methyl-1H-pyrazol-4-yl)pyridin-4-yl)oxy)pyridin-2-yl)carbamoyl)cyclopropanecarboxamide], the IC50 in the test with M-NFS-60 cells was greater than 1 µM; in test [3], 0.1 to 1 µM; in test [1] it was greater than 1 µM; in test [2] it was greater than 1 µM.
`Cc1ccc(-c2cc(Oc3ccc(NC(=O)NC(=O)C4(C)CC4)nc3)ccn2)cn1` [Example 114, 1-methyl-N-((5-((6′-methyl-[2,3′-bipyridin]-4-yl)oxy)pyridin-2-yl)carbamoyl)cyclopropanecarboxamide]: the IC50 with osteoclast precursors was less than 0.01 µM.
Take `Cc1cn(-c2cc(Oc3ccc(NC(=O)NC(=O)C4CCOCC4)nc3C)ccn2)cn1` [Example 142, N-((6-methyl-5-((2-(4-methyl-1H-imidazol-1-yl)pyridin-4-yl)oxy)pyridin-2-yl)carbamoyl)tetrahydro-2H-pyran-4-carboxamide]: the IC50 lay in the range of 0.01 to 0.1 µM in the test on osteoclast precursors, 0.1 to 1 µM with M-NFS-60 cells, 0.01 to 0.1 µM in test [3] and 0.1 to 1 µM in test [1].
For the compound `Cc1ncc(-c2cc(Oc3ccc(NC(=O)NC(=O)C4(C)CC4)nc3)ccn2)s1` [Example 121, 1-methyl-N-((5-((2-(2-methylthiazol-5-yl)pyridin-4-yl)oxy)pyridin-2-yl)carbamoyl)cyclopropanecarboxamide], the IC50 in the test with osteoclast precursors is less than 0.01 µM.
Turning to `CCC(=O)NC(=O)Nc1ccc(Oc2ccnc(-n3cnc(C)c3)c2)cn1` [Example 128, N-((5-((2-(4-methyl-1H-imidazol-1-yl)pyridin-4-yl)oxy)pyridin-2-yl)carbamoyl)propionamide], the IC50 was 0.1 to 1 µM in the test with osteoclast precursors, greater than 1 µM in the test with M-NFS-60 cells, 0.1 to 1 µM in test [3] and greater than 1 µM in test [1].
In the case of `COC1(C(=O)NC(=O)Nc2ccc(Oc3ccnc(-c4ccc(C5CCN(C)CC5)cc4)c3)c(C)n2)CC1` [Example 144, 1-methoxy-N-((6-methyl-5-((2-(4-(1-methylpiperidin-4-yl)phenyl)pyridin-4-yl)oxy)pyridin-2-yl)carbamoyl)cyclopropanecarboxamide], the IC50 with osteoclast precursors is less than 0.01 µM; in test [1], 0.1 to 1 µM.
Consider `Cc1ncc(-c2cc(Oc3ccc(NC(=O)NC(=O)C4CCOCC4)nc3C)ccn2)s1` [Example 129, N-((6-methyl-5-((2-(2-methylthiazol-5-yl)pyridin-4-yl)oxy)pyridin-2-yl)carbamoyl)tetrahydro-2H-pyran-4-carboxamide], for which the IC50 in the test with osteoclast precursors is 0.01 to 0.1 µM; in the test with M-NFS-60 cells, 0.1 to 1 µM; in test [3], 0.01 to 0.1 µM; in test [1], greater than 1 µM.
For `COC1(C(=O)NC(=O)Nc2ccc(Oc3ccnc(-c4cnn(C)c4)c3)cn2)CCCC1` [Example 153, 1-methoxy-N-((5-((2-(1-methyl-1H-pyrazol-4-yl)pyridin-4-yl)oxy)pyridin-2-yl)carbamoyl)cyclopentanecarboxamide], in the test on osteoclast precursors, the IC50 was less than 0.01 µM.
Same read-out and setting: in the case of `CC(C)C(=O)NC(=O)Nc1ccc(Oc2ccnc(-c3cnn(C)c3)c2)c(C(F)(F)F)n1` [Example 82, N-((5-((2-(1-methyl-1H-pyrazol-4-yl)pyridin-4-yl)oxy)-6-(trifluoromethyl)pyridin-2-yl)carbamoyl)isobutyramide] it was 0.1 to 1 µM.
For the compound `Cn1cc(-c2cc(Oc3ccc(NC(=O)NC(=O)C4CC5CCC4O5)nc3)ccn2)cn1` (centres unmarked) [Example 111, N-((5-((2-(1-methyl-1H-pyrazol-4-yl)pyridin-4-yl)oxy)pyridin-2-yl)carbamoyl)-7-oxabicyclo[2.2.1]heptane-2-carboxamide], the IC50 is less than 0.01 µM in the test with osteoclast precursors and 0.1 to 1 µM in test [1].
Turning to `COC(C)(C)C(=O)NC(=O)Nc1ccc(Oc2ccnc(-c3ccc(C4CCN(C)CC4)cc3)c2)c(C)n1` [Example 133, 2-methoxy-2-methyl-N-((6-methyl-5-((2-(4-(1-methylpiperidin-4-yl)phenyl)pyridin-4-yl)oxy)pyridin-2-yl)carbamoyl)propanamide], the IC50 was 0.01 to 0.1 µM with osteoclast precursors, less than 0.01 µM with M-NFS-60 cells, less than 0.01 µM in test [3] and 0.01 to 0.1 µM in test [1].
`CCC(=O)NC(=O)Nc1ccc(Oc2ccnc(-c3cnc(C)s3)c2)cn1` [Example 98, N-((5-((2-(2-methylthiazol-5-yl)pyridin-4-yl)oxy)pyridin-2-yl)carbamoyl)propionamide]: the IC50 with osteoclast precursors was 0.1 to 1 µM.
Turning to `Cc1cc(-c2cc(Oc3ccc(NC(=O)NC(=O)C4CC(C)(C)C4)nc3C)ccn2)on1` [Example 14, 3,3-dimethyl-N-((6-methyl-5-((2-(3-methylisoxazol-5-yl)pyridin-4-yl)oxy)pyridin-2-yl)carbamoyl)cyclobutanecarboxamide], the IC50 in the test with osteoclast precursors is 0.01 to 0.1 µM; in test [2] it was 0.1 to 1 µM.
In the case of `COC1(C(=O)NC(=O)Nc2ccc(Oc3ccnc(-n4cnc(C)c4)c3)cn2)CC1` [Example 143, 1-methoxy-N-((5-((2-(4-methyl-1H-imidazol-1-yl)pyridin-4-yl)oxy)pyridin-2-yl)carbamoyl)cyclopropanecarboxamide], the IC50 lay in the range of 0.01 to 0.1 µM in the test on osteoclast precursors, 0.1 to 1 µM with M-NFS-60 cells, 0.01 to 0.1 µM in test [3] and 0.1 to 1 µM in test [1].
For the compound `Cn1cc(-c2cc(Oc3ccc(NC(=O)NC(=O)C4CC(C)(C)C4)nc3)ncn2)cn1` [Example 5, 3,3-dimethyl-N-((5-((6-(1-methyl-1H-pyrazol-4-yl)pyrimidin-4-yl)oxy)pyridin-2-yl)carbamoyl)cyclobutanecarboxamide], the IC50 is less than 0.01 µM in the test on osteoclast precursors, less than 0.01 µM with M-NFS-60 cells, less than 0.01 µM in test [3] and 0.01 to 0.1 µM in test [2].
Take `COC1(C(=O)NC(=O)Nc2ccc(Oc3ccnc(-c4cnc(C)s4)c3)c(C)n2)CC1` [Example 122, 1-methoxy-N-((6-methyl-5-((2-(2-methylthiazol-5-yl)pyridin-4-yl)oxy)pyridin-2-yl)carbamoyl)cyclopropanecarboxamide]: the IC50 was 0.01 to 0.1 µM in the test with osteoclast precursors, 0.1 to 1 µM in the test with M-NFS-60 cells, 0.01 to 0.1 µM in test [3] and greater than 1 µM in test [1].
Consider `Cc1nc(NC(=O)NC(=O)CN2CCN(C)CC2)ccc1Oc1ccnc(-c2cnn(C)c2)c1` [Example 50, N-((6-methyl-5-((2-(1-methyl-1H-pyrazol-4-yl)pyridin-4-yl)oxy)pyridin-2-yl)carbamoyl)-2-(4-methylpiperazin-1-yl)acetamide], for which the IC50 with M-NFS-60 cells was greater than 1 µM; in test [3], 0.1 to 1 µM; in test [1], greater than 1 µM.
